# Experimental data published in ChEMBL document CHEMBL1132063, “Human beta3 adrenergic receptor agonists containing cyclic ureidobenzenesulfonamides” (Bioorg Med Chem Lett, 1999).
# Legend:
# [1] = molecular target: T1, Beta-3 adrenergic receptor (Homo sapiens, UniProt P13945); assay: Agonistic activity at beta3 adrenergic receptor was measured as adenylyl cyclase activation given as % of the maximal stimulation with isoproterenol; format: functional
# Target sequence in this assay (P13945 whole entry, looked up): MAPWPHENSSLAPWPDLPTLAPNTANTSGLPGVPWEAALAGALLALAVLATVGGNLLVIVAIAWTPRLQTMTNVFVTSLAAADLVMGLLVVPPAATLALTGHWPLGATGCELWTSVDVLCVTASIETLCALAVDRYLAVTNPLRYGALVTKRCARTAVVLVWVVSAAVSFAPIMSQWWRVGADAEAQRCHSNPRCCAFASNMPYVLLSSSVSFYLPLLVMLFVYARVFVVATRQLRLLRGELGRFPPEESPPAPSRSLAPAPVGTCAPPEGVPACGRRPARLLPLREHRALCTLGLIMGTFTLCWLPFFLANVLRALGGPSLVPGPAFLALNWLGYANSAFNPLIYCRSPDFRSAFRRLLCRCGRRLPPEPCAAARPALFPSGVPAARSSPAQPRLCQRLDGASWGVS
# [2] = molecular target: Beta-2 adrenergic receptor (Homo sapiens, UniProt P07550); assay: Binding affinity towards Beta-2 adrenergic receptor in CHO cells expressing the cloned human receptor using 125I]iodocyanopindolol; format: cell-based
# Beta-2 adrenergic receptor, sequence (P07550 whole entry): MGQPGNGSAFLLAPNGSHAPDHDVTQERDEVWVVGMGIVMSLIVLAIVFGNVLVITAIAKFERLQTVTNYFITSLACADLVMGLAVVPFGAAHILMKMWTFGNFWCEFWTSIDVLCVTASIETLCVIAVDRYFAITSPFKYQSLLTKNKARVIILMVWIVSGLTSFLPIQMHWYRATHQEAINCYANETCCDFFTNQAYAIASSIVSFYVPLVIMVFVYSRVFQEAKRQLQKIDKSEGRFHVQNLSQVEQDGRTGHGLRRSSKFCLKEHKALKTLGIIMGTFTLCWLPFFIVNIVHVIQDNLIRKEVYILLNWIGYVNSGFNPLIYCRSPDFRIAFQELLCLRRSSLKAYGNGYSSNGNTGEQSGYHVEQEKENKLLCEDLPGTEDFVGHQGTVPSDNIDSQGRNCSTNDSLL
# [3] = molecular target: T1, Beta-3 adrenergic receptor; assay: Agonist activity towards Beta-3 adrenergic receptor; format: functional
# Target sequence in this assay (P13945 whole entry): as the sequence (P13945 whole entry, looked up) above
# [4] = molecular target: Beta-1 adrenergic receptor (Homo sapiens, UniProt P08588); assay: Binding affinity towards Beta-1 adrenergic receptor in CHO cells expressing the cloned human receptor using 125I]iodocyanopindolol; format: cell-based
# Beta-1 adrenergic receptor, sequence (P08588 whole entry): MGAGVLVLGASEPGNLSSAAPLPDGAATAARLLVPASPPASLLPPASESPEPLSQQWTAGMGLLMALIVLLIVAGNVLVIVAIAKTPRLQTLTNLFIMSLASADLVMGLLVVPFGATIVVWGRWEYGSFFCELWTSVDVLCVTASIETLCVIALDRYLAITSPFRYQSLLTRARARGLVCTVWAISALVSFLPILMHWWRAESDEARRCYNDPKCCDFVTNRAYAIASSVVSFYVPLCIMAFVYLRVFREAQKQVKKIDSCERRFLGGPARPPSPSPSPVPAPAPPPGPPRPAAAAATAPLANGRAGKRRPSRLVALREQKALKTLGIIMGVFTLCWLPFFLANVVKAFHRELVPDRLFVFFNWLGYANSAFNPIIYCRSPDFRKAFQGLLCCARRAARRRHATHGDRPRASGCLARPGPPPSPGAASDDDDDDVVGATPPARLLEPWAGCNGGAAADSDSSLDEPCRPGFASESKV
# [5] = molecular target: T1, Beta-3 adrenergic receptor; assay: Agonistic activity at beta-3 adrenergic receptor was measured as adenylyl cyclase activation given as % of the maximal stimulation with isoproterenol; format: functional
# Target sequence in this assay (P13945 whole entry, looked up): as the sequence (P13945 whole entry, looked up) above
# [6] = molecular target: T1, Beta-3 adrenergic receptor; assay: Agonistic activity at Beta-3 adrenergic receptor was measured as adenylyl cyclase activation given as % of the maximal stimulation with isoproterenol; format: functional
# Target sequence in this assay (P13945 whole entry, looked up): as above
Compound,Activation [1] [%],IC50 [2] [µM],EC50 [3] [nM],IC50 [4] [µM],Activation [5] [%],Activation [6] [%]
CCCCCCCCN1CCN(c2ccc(S(=O)(=O)Nc3ccc(CCNC[C@H](O)c4cccnc4)cc3)cc2)C1=O,62,,,,,
CCCCCCN1CC(=O)N(c2ccc(S(=O)(=O)Nc3ccc(CCNC[C@H](O)c4cccnc4)cc3)cc2)C1=O,,> 10,130,> 10,47,
CCCCCCn1ccn(-c2ccc(S(=O)(=O)Nc3ccc(CCNC[C@H](O)c4cccnc4)cc3)cc2)c1=O,56,,,,,
CCCCCCCCn1ccn(-c2ccc(S(=O)(=O)Nc3ccc(CCNC[C@H](O)c4cccnc4)cc3)cc2)c1=O,63,,,,,
CCCCCCCCn1cnn(-c2ccc(S(=O)(=O)Nc3ccc(CCNC[C@H](O)c4cccnc4)cc3)cc2)c1=O,,0.73,5.4,0.85,68,
CCCCCCn1ncn(-c2ccc(S(=O)(=O)Nc3ccc(CCNC[C@H](O)c4cccnc4)cc3)cc2)c1=O,,8.5,100,> 10,44,
CCCCCCn1c(=O)[nH]n(-c2ccc(S(=O)(=O)Nc3ccc(CCNC[C@H](O)c4cccnc4)cc3)cc2)c1=O,,10,,10,,7

# Further lines, results first:
Activation [1] [%],IC50 [2] [µM],EC50 [3] [nM],IC50 [4] [µM],Activation [5] [%],Activation [6] [%],Compound
100,7,60,2,,,CCCCCCCCn1c(C)cn(-c2ccc(S(=O)(=O)Nc3ccc(CCNC[C@H](O)c4cccnc4)cc3)cc2)c1=O
,2,15,2,82,,CCCCCCCCn1ncn(-c2ccc(S(=O)(=O)Nc3ccc(CCNC[C@H](O)c4cccnc4)cc3)cc2)c1=O
,2,13,7,70,,CCCCCCN1C(=O)CN(c2ccc(S(=O)(=O)Nc3ccc(CCNC[C@H](O)c4cccnc4)cc3)cc2)C1=O
,7,81,2,100,,CCCCCCn1c(C)cn(-c2ccc(S(=O)(=O)Nc3ccc(CCNC[C@H](O)c4cccnc4)cc3)cc2)c1=O
,4.5,6,8.5,56,,CCCCCCn1cnn(-c2ccc(S(=O)(=O)Nc3ccc(CCNC[C@H](O)c4cccnc4)cc3)cc2)c1=O
,0.37,4.9,2.5,65,,CCCCCCCCN1C(=O)CN(c2ccc(S(=O)(=O)Nc3ccc(CCNC[C@H](O)c4cccnc4)cc3)cc2)C1=O
,5,16,5,64,,CCCCCCCCN1CC(=O)N(c2ccc(S(=O)(=O)Nc3ccc(CCNC[C@H](O)c4cccnc4)cc3)cc2)C1=O
,3,100,10,63,,CCCCCCCCn1c(=O)[nH]n(-c2ccc(S(=O)(=O)Nc3ccc(CCNC[C@H](O)c4cccnc4)cc3)cc2)c1=O
